Data set [1] relates to HCV replicon with a D168V mutation in a 1a-H77 background. The data set is described as follows: transient replicon assay, D168V mutation in 1a-H77 background. To be noted: Hepatitis C virus, read-out: EC50 in a transient replicon assay with a D168V mutation in a 1a-H77 background. The format is cell-based, hepatitis C virus (genotype 1a-H77). The essentials: (§1)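 Transient transfection of mutant replicon RNA (1a-H77 with NS2–NS5B, or 1b-N with NS3–NS5B plus E1202G/S2204I) by electroporation into IFN-cured Huh7 cells, plated at 7.5×10^3 cells per well in DMEM with 5% FBS. Serial compound dilutions added 4 h post-transfection (0.5% DMSO final).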
(A replicon is a self-replicating genome or part of one, used to study replication in cells.)

In data set [2] the test system is HCV replicon with a D168E mutation in a 1a-H77 background. The data set is described as follows: transient replicon assay, D168E mutation in 1a-H77 background. The class given is cell-based, hepatitis C virus (genotype 1a-H77). To be noted: Hepatitis C virus, read-out: EC50 in a transient replicon assay with a D168E mutation in a 1a-H77 background. The essentials:
as §1

Data set [3] relates to HCV replicon with a R155K mutation in a 1a-H77 background. The data set is described as follows: transient replicon assay, R155K mutation in 1a-H77 background. To be noted: Hepatitis C virus, read-out: EC50 in a transient replicon assay with a R155K mutation in a 1a-H77 background. The format is cell-based, hepatitis C virus (genotype 1a-H77). Summed up: as §1
A short description of a further data set: dog PK experiment. To be noted: in vivo; for bioavailability: dog PK experiment, 3 mg/kg, read-out: F value (bioavailability); for AUC: dog, dosed at 3 mg/kg. An excerpt:
Those of ordinary skill in the art are aware of the biological assays utililized to test the compounds of the invention. Regarding bioavailability data (F values), a more thorough explanation can be found in Rowland, M and Tozer, T Clinical Pharmacokinetics: Concepts and Applications Lippincott, Williams & Wilkins 3rd ed. 1995, (specifically covered on page 43).

In data set [4] the test system is HCV replicon with a R155K mutation in a 1b-N background. The data set is described as follows: transient replicon assay, R155K mutation in 1b-N background. The class given is cell-based, hepatitis C virus (genotype 1b-N). To be noted: Hepatitis C virus, read-out: EC50 in a transient replicon assay with a R155K mutation in a 1b-N background. The protocol: Replicon cell lines can be maintained in Dulbecco's modified Eagles medium (DMEM) containing 100 IU/ml penicillin, […] streptomycin (Invitrogen), […] G418 (Invitrogen) and 10% (v/v) fetal bovine serum (FBS). Replicon-containing cells can be seeded into 96 well plates at a density of 5000 cells per well in 100 μl DMEM containing 5% FBS. The next day, the compound can be initially diluted in dimethyl sulfoxide (DMSO) to generate a 200× stock of the inhibitor in a series of 8 half-log dilutions. The dilution series can then be diluted 100-fold in the medium containing 5% FBS. […] The inhibitory effects of compounds against the replicons can be determined by measuring either the level of luciferase or HCV RNA. […] Luciferin solution (50 μl, Promega) is added, and luciferase activity is measured with a Victor II luminometer (Perkin-Elmer). To determine HCV RNA levels, RNA extractions can be performed using the CellsDirect kit (Invitrogen), and the HCV RNA copy number can be measured using the SuperScript III Platinum One-Step qRT-PCR system (Invitrogen) and primers specific to the HCV 5′ nontranslated region. Cytotoxicity can be determined by the 3-[4,5-dimethylhiazol-2-yl]-2,5-diphenyltetrazolium bromide (MTT) colorimetric assay as follows. […] The plates are incubated overnight and the optical density can be measured at 570 nm. […]

Some results are limits rather than exact numbers.

In the case of `Cc1cc(C(=O)N[C@H]2CCCCC/C=C\[C@@H]3C[C@@]3(C(=O)NS(=O)(=O)C3CC3)NC(=O)[C@@H]3C[C@@H](Oc4nc5ccccc5nc4C(F)(F)F)CN3C2=O)no1` [Example 10, N-((2R,6S,13aS,14aR,16aS,Z)-14a-(cyclopropylsulfonylcarbamoyl)-5,16-dioxo-2-(3-(trifluoromethyl)quinoxalin-2-yloxy)-1,2,3,5,6,7,8,9,10,11,13a,14,14a,15,16,16a-hexadecahydrocyclopropa[e]pyrrolo[1,2-a][1,4]diazacyclopentadecin-6-yl)-5-methylisoxazole-3-carboxamide], the EC50 – broadly, the concentration needed to bring the measured effect to its halfway point – in data set [1] is 25 to 50 nM; in data set [2], below 3 nM; in data set [3], below 1 nM. The bioavailability (usually the share of a dose that reaches the circulation, judged against a reference dose that is usually intravenous) in “dog PK experiment” is above 100%. For the same compound, the AUC – broadly, concentration integrated over time – in the data set “dog PK experiment” stood at 27000 ng·h/mL.

On to `Cc1cc(C(=O)N[C@H]2CCCCC/C=C\[C@@H]3C[C@@]3(C(=O)NS(=O)(=O)C3(C)CC3)NC(=O)[C@@H]3C[C@@H](Oc4nc5cc(F)ccc5nc4C)CN3C2=O)no1` [Example 23, N-((2R,6S,13aS,14aR,16aS,Z)-2-(7-fluoro-3-methylquinoxalin-2-yloxy)-14a-(1-methylcyclopropylsulfonylcarbamoyl)-5,16-dioxo-1,2,3,5,6,7,8,9,10,11,13a,14,14a,15,16,16a-hexadecahydrocyclopropa[e]pyrrolo[1,2-a][1,4]diazacyclopentadecin-6-yl)-5-methylisoxazole-3-carboxamide], for which the EC50 in data set [1] was below 25 nM; in data set [2] it was 3 to 20 nM; in data set [3], 1 to 10 nM. Moreover, the bioavailability in “dog PK experiment” is 86%. This compound displayed an AUC in “dog PK experiment” of 201000 ng·h/mL.

In the case of `Cc1cc(C(=O)N[C@H]2CCCCC/C=C\[C@@H]3C[C@@]3(C(=O)NS(=O)(=O)C3CC3)NC(=O)[C@@H]3C[C@@H](Oc4nc5c(F)cccc5nc4C)CN3C2=O)no1` [Example 56, N-((2R,6S,13aS,14aR,16aS,Z)-14a-(cyclopropylsulfonylcarbamoyl)-2-(8-fluoro-3-methylquinoxalin-2-yloxy)-5,16-dioxo-1,2,3,5,6,7,8,9,10,11,13a,14,14a,15,16,16a-hexadecahydrocyclopropa[e]pyrrolo[1,2-a][1,4]diazacyclopentadecin-6-yl)-5-methylisoxazole-3-carboxamide], the concentration for a half-maximal effect (EC50) in data set [1] was 50 to 250 nM; in data set [2], 20 to 50 nM; in data set [3], 1 to 10 nM. In addition, the bioavailability in “dog PK experiment” was above 100%. For the same compound, the area under the curve (AUC) in the data set “dog PK experiment” is 10800 ng·h/mL.

As for `Cc1cc(C(=O)N[C@H]2CCCCC/C=C\[C@@H]3C[C@@]3(C(=O)NS(=O)(=O)C3(C)CC3)NC(=O)[C@@H]3C[C@@H](Oc4nc5cc(F)ccc5nc4C(F)(F)F)CN3C2=O)no1` [Example 111, N-((2R,6S,13aS,14aR,16aS,Z)-2-(7-fluoro-3-(trifluoromethyl)quinoxalin-2-yloxy)-14a-(1-methylcyclopropylsulfonylcarbamoyl)-5,16-dioxo-1,2,3,5,6,7,8,9,10,11,13a,14,14a,15,16,16a-hexadecahydrocyclopropa[e]pyrrolo[1,2-a][1,4]diazacyclopentadecin-6-yl)-5-methylisoxazole-3-carboxamide], the EC50 is below 25 nM in data set [1], below 3 nM in data set [2] and below 1 nM in data set [3]. Moreover, the bioavailability in the data set “dog PK experiment” amounted to 88%. Besides, in the data set “dog PK experiment”, the exposure (AUC) came to 141000 ng·h/mL.

Turning to `Cc1cc(C(=O)N[C@H]2CCCCC/C=C\[C@@H]3C[C@@]3(C(=O)NS(=O)(=O)C3CC3)NC(=O)[C@@H]3C[C@@H](Oc4nc5ccccc5nc4C(C)(F)F)CN3C2=O)no1` [Example 2, N-((2R,6S,13aS,14aR,16aS,Z)-14a-(cyclopropylsulfonylcarbamoyl)-2-(3-(1,1-difluoroethyl)quinoxalin-2-yloxy)-5,16-dioxo-1,2,3,5,6,7,8,9,10,11,13a,14,14a,15,16,16a-hexadecahydrocyclopropa[e]pyrrolo[1,2-a][1,4]diazacyclopentadecin-6-yl)-5-methylisoxazole-3-carboxamide], the EC50 was 25 to 50 nM in data set [1], below 3 nM in data set [2] and below 1 nM in data set [3]. Further, in “dog PK experiment”, the bioavailability is above 100%. In the data set “dog PK experiment”, this compound registered an AUC of 4500 ng·h/mL.

`CCc1nc2cccc(F)c2nc1O[C@@H]1C[C@H]2C(=O)N[C@]3(C(=O)NS(=O)(=O)C4(C)CC4)C[C@H]3/C=C\CCCCC[C@H](NC(=O)OC(C)(C)C)C(=O)N2C1` [Example 164, tert-butyl (2R,6S,13aS,14aR,16aS,Z)-2-(3-ethyl-8-fluoroquinoxalin-2-yloxy)-14a-(1-methylcyclopropylsulfonylcarbamoyl)-5,16-dioxo-1,2,3,5,6,7,8,9,10,11,13a,14,14a,15,16,16a-hexadecahydrocyclopropa[e]pyrrolo[1,2-a][1,4]diazacyclopentadecin-6-ylcarbamate]: the EC50 in data set [1] fell in the range of 50 to 250 nM; in data set [2], 20 to 50 nM; in data set [4] it was 1 to 10 nM.

Take `Cc1cc(C(=O)N[C@H]2CCCCC/C=C\[C@@H]3C[C@@]3(C(=O)NS(=O)(=O)C3(C)CC3)NC(=O)[C@@H]3C[C@@H](Oc4nc5cc(F)ccc5nc4C(C)(F)F)CN3C2=O)no1` [Example 119, N-((2R,6S,13aS,14aR,16aS,Z)-2-(3-(1,1-difluoroethyl)-7-fluoroquinoxalin-2-yloxy)-14a-(1-methylcyclopropylsulfonylcarbamoyl)-5,16-dioxo-1,2,3,5,6,7,8,9,10,11,13a,14,14a,15,16,16a-hexadecahydrocyclopropa[e]pyrrolo[1,2-a][1,4]diazacyclopentadecin-6-yl)-5-methylisoxazole-3-carboxamide]: the EC50 is below 25 nM in data set [1], below 3 nM in data set [2] and below 1 nM in data set [3]. For the same compound, in the data set “dog PK experiment”, the bioavailability was determined as 64%. In the data set “dog PK experiment”, this compound showed an AUC of 30000 ng·h/mL.

For the compound `Cc1cc(C(=O)N[C@H]2CCCCC/C=C\[C@@H]3C[C@@]3(C(=O)NS(=O)(=O)C3CC3)NC(=O)[C@@H]3C[C@@H](Oc4nc5cc(F)ccc5nc4C(F)(F)F)CN3C2=O)no1` [Example 107, N-((2R,6S,13aS,14aR,16aS,Z)-14a-(cyclopropylsulfonylcarbamoyl)-2-(7-fluoro-3-(trifluoromethyl)quinoxalin-2-yloxy)-5,16-dioxo-1,2,3,5,6,7,8,9,10,11,13a,14,14a,15,16,16a-hexadecahydrocyclopropa[e]pyrrolo[1,2-a][1,4]diazacyclopentadecin-6-yl)-5-methylisoxazole-3-carboxamide], the 50% effective concentration (EC50) in data set [1] was below 25 nM; in data set [2] it was below 3 nM; in data set [3], below 1 nM. In the data set “dog PK experiment”, the bioavailability was determined as 74%. In addition, the AUC in the data set “dog PK experiment” was 54000 ng·h/mL.
